Test results taken from US10640545B2 (THE GOVERNORS OF THE UNIVERSITY OF ALBERTA, priority 2017, dated 2020).
Where a SMILES comes first, the peptide text is derived from it. [ ]: non-standard residue; d: D form. Phe(4-Br) = N[C@@H](Cc1ccc(Br)cc1)C(=O)O; NMeL = CN[C@@H](CC(C)C)C(=O)O; Nle = CCCC[C@H](N)C(=O)O; Aib = CC(C)(N)C(=O)O

System: C57BL/6 mice
Experiment: Cardiac allograft vasculopathy, heterotopic heart transplant
Format: in vivo
Conditions: male hearts into female B6 mice, 3 mg/kg/d intraperitoneal for 4 weeks from 2 weeks after transplant
Description: B6 male hearts were transplanted heterotopically into […] female B6 of the recipient mice, starting 2 weeks after transplant. Synthesized apelin peptide (Apelin-NMe17A2) (11), was given by daily intraperitoneal injection (3 mg/kg/d) for 4 weeks. Female mice raise immune response against the male HY antigen, injure the coronary arteries of the transplanted heart based on Verhoeff-Van Gieson staining (FIG. 17) leading to progressive expansion of the arterial intima occluding the arterial lumen (FIG. 18).
C57BL/6J mice were purchased from Jackson Laboratories. The C57BL/6 mice subjected to surgery were 11-14 weeks old. All animal experiments were carried out according to the Canadian Council on Animal Care Guidelines. Animal protocols were approved by the Animal Care and Use Committee at the University of Alberta. Hearts from 12-14 weeks male wild-type (WT) donors were transplanted heterotopically to the abdomen of the female WT recipients. […] Cardiac allograft vasculopathy (CAV) was induced due to the presence of HY-minor histocompatibility antigen-directed, cell-mediated allo-immune response against the male donor hearts. The heart grafts were harvested six weeks after transplantation. Intima area, endothelial loss in medium to large-sized arteries, inflammatory cellular infiltration, microvasculature density and tip cell markers using Immunohistochemistry and qPCR were characterized.

CCCC[C@H](NC(=O)[C@@H]1CCCN1C(=O)CNC(=O)[C@H](CCCCN)NC(=O)[C@H](Cc1c[nH]cn1)NC(=O)[C@H](CO)NC(=O)[C@H](CC(C)C)N(C)C(=O)[C@H](CCCNC(=N)N)NC(=O)[C@@H]1CCCN1C(=O)[C@H](CCCNC(=N)N)NC(=O)[C@H](CCC(N)=O)NC(=O)[C@H](CCCNC(=N)N)NC(=O)[C@H](CCCNC(=N)N)NC(=O)[C@H](Cc1ccccc1)NC(=O)[C@@H](N)CCCCN)C(=O)NC(C)(C)C(=O)N[C@@H](Cc1ccc(Br)cc1)C(=O)O [Peptide 11] (H-KFRRQRPR[NMeL]SHKGP[Nle][Aib][Phe(4-Br)]-OH; C-terminus assumed)
transplant arteriopathy (intima/lumen of coronary arteries): mitigates arteriopathy
